The values that follow come from paper PMC6079014, “Calcium is an essential cofactor for metal efflux by the ferroportin transporter family” (Nature Communications, 2018).

What is called Kd is a measure of binding affinity in units of concentration.

Several values for one entry are separate records, joined by “and”; a condition that tells them apart may be missing. Identical values can stand only once.

This test has as its target T1, mouse Fpn (Fpn-C2) (Mus musculus, UniProt Q9JHI9, DEL251-290/DEL401-449).
T1 construct: generated from full-length mouse Fpn (UniProt: Q9JHI9); GFP (C); made in house; host or cells: Sf9 insect cells (baculovirus)
T1 sequence (Q9JHI9 with tags, fused parts or gaps DEL251-290/DEL401-449): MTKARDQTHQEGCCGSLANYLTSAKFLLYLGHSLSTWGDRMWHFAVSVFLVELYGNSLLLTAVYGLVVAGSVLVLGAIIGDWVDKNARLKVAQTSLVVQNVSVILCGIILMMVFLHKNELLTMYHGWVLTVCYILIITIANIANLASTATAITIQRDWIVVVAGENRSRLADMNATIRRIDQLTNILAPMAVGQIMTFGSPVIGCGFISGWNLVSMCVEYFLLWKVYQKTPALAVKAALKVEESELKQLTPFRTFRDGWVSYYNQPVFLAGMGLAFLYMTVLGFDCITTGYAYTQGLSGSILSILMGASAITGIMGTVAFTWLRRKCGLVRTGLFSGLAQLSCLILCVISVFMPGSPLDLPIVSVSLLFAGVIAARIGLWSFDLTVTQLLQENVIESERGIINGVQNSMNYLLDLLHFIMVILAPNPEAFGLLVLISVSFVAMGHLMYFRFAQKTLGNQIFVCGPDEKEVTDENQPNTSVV
The test is described as follows: Isothermal titration calorimetry, thermostabilized mouse Fpn construct Fpn-C2. The test is classed as binding. The source says: To obtain a purified mammalian Fpn protein conducive for biophysical studies, we generated a protein construct with an increased thermal stability (Deshpande et al., 2018). In brief, the construct (Fpn-C2) was generated from full-length mouse Fpn (UniProt: Q9JHI9 [https://www.uniprot.org/uniprot/Q9JHI9]) by deleting two-loop regions (residues 251–290 and 401–449), followed by an overlapping PCR incorporating the E219A mutation to generate Fpn-C2-E219A. The genes were subsequently cloned with a C-terminal GFP fusion into a baculovirus transfer vector (pFastBac1; Thermo Fisher Scientific) and the proteins were expressed using the Bac-to-Bac Baculovirus and Sf9 cells (Thermo Fisher Scientific) expression method according to the manufacturer’s protocol (Thermo Fisher Scientific). For large scale expression of the protein, 6L Sf9 cells (2 × 10^6 cells/ml) were infected with virus at an optimal multiplicity of infection (MOI) of 2.5 in Insect-XPRESS™ Protein-free Insect Cell Medium with L-glutamine (Lonza) and incubated at 27 °C with shaking at 130 rpm. The cells were spun down 48 h post-infection at 1500 × g for 10 min and the pellet stored at −20 °C until further use.
For Fpn-C2 and Fpn-C2-E219A purification (Deshpande et al., 2018), Sf9 cells were thawed at room temperature with the addition of 2 μl Benzonase (250 units/μL, Sigma-Aldrich), 1 mM MgSO4, 0.2 mM PMSF, and lysed by a single pass through cooled EmulsiFlex-C3 homogenizer (Avestin). All subsequent steps were performed at 4 °C. Membranes were harvested by centrifugation at 106,000 × g for 1 h, and pellets resuspended in Buffer A. The protein was subsequently purified as BbFpn, but with the addition of a second wash on the Ni-NTA column with three column volumes of 25 mM imidazole pH 8, 300 mM NaCl, and 0.03% DDM, and with 0.03% DDM instead of LMNG in the elution and SEC purification. The SEC eluted protein was concentrated to ~10 mg/ml as determined by the BCA assay (Thermo Fisher Scientific) method and stored at −80 °C until further use.
Protein samples were purified as above and diluted to 0.03 mM (1.5 mg/ml) for ITC experiments. The buffer used for ITC was 20 mM Tris pH 8, 50 mM NaCl, and 0.004% LMNG. The buffer was degassed in vacuum (2 h) and pretreated with Chelex-100 (Bio-Rad) to remove residual calcium and/or metal ions bound with moderate affinity. This was done by first washing the Chelex-100 beads with water and then running the dialysis buffer through the beads in a gravity flow column. The samples were subsequently dialyzed overnight against their respective gel filtration buffers. ITC measurements were obtained by using a MicroCal iTC 200 calorimeter (GE Healthcare) and MicroCal PEAQ-ITC (Malvern Instruments) at 20 °C. For calcium and strontium binding measurements, a 2 mM solution was prepared in the protein buffer using a standard 1 M stock solution. […]. For MgCl2 and KCl measurements, a 2–5 mM solution was prepared in the respective buffer.
In each experiment, the protein solution was loaded into the sample cell, and the ligand solution was loaded in the syringe. […] To obtain the effective heat of binding, the heat of dilution, measured by injecting the ligand solution alone into buffer, was subtracted prior to data analysis. The data were fitted using the ‘one binding site’ model using the MicroCal PEAQ-ITC Analysis Software (Malvern Instruments), and the apparent molar reaction […] (ΔH°), entropy (ΔS°), dissociation constant (Kd), and stoichiometry of binding (N) were determined. […]
In general terms: Isothermal titration calorimetry measures the heat released or taken up as one component is titrated into another.

Where [1] appears, read: Supplementary Fig. 7a, one experiment.

For the compound `[Ca+2]` [Ca^2+, calcium], under setting [1], the “-TΔS, ITC” value is given as -9.95 kcal/mol; the “N (sites), ITC” value was found to be 0.804 ± 4.8e-2; the “ΔG, ITC” value is reported as -7.47 kcal/mol; the “ΔH, ITC” value is 2.49 ± 0.210 kcal/mol. The Kd (thermostabilized mouse Fpn-C2, read-out: Kd (ITC)) is ~3000 nM and 2700 nM.
